Source: paper PMC12442245, “Activity Analysis of the P2X Receptor Antagonist PPADS against Signal Transducer and Activator of Transcription Proteins” (Chembiochem, 2025)
Non-standard residues stand in square brackets, D forms with d. Residues, ends and D or L forms follow the SMILES beside them. pY = N[C@@H](Cc1ccc(OP(=O)(O)O)cc1)C(=O)O

How the values were obtained:
Assay type in all cases: binding
[1] = biological target: T1, STAT5b (Homo sapiens, UniProt P51692); assay: HTRF assay, STAT5b; settings: STAT5b 80 nM, without reducing agent, 1 h
T1 sequence (P51692 1-787): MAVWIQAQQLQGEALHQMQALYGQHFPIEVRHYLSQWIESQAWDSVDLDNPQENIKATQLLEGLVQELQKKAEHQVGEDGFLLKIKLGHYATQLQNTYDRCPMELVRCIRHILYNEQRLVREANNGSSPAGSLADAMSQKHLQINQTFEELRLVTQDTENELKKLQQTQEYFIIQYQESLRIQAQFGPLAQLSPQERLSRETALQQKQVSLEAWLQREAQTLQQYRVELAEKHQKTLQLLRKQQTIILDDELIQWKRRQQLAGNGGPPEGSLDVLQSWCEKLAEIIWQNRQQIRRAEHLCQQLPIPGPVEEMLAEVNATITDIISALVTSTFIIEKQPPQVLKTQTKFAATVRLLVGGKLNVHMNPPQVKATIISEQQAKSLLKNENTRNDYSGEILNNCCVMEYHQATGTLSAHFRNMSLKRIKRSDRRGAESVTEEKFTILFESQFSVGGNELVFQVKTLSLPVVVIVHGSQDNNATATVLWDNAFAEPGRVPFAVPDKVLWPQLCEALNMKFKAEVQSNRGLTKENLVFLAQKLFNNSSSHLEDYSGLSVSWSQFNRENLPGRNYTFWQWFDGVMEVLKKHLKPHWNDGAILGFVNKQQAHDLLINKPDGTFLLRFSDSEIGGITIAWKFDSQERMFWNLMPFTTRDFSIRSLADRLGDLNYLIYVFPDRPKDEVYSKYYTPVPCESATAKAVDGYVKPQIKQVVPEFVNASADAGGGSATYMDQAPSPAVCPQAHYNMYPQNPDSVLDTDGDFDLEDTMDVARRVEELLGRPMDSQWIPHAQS
From the text: (§1) The azo dyes PPADS and iso‐PPADS have a deep red color in aqueous solution. […] In order to exclude this possibility, we established homogeneous time‐resolved fluorescence resonance energy transfer (HTRF) assays to confirm the degree of binding between STAT4, STAT5a, and STAT5b and the respective 5‐carboxyfluorescein‐labeled binding peptides used in the FP assay. In addition, an HTRF assay was established for STAT3, one of the STAT proteins targeted to a lesser extent in FP assays, as a specificity control (Figure 1B,C). The STAT protein constructs each contain a 6x‐His‐tag.^[ [15], [16], [17], [22] ^] A Tb^3+‐cryptate fused to an anti‐6x‐His antibody was chosen as the long‐lived fluorescent donor, while the carboxyfluorescein linked to the respective STAT‐binding peptides served as the acceptor (Figure 2A). Emission was measured with a time delay of 60 μs after excitation, allowing any initial compound fluorescence to decay beforehand. […]
(§2) Screening of chemical libraries comprising approximately 5000 known bioactive compounds in fluorescence polarization-based assays against phosphorylation-dependent protein-protein interaction domains, including STAT proteins, has been described.[1] […]
(§3) Fluorescence polarization assays
(§4) Competitive fluorescence polarization (FP) assays for STAT1,[2] […] Briefly, peptide binding to proteins was analyzed using the following carboxyfluorescein (CF) -labelled pepti des at a concentration of 10 nM: STAT1: 5-CF-GpYDKPHVL-OH, STAT3: 5-CF-GpYLPQTV -NH2, STAT4: 5-CF-GpYLPQNID-OH, STAT5a and STAT5b: 5-CF-GpYLVLDKW-OH, STAT6: 5- […]
(§5) CFGp[…]-OH. […] FP was measured using an Infinite F500 plate reader (Tecan) and measurements were converted into percent inhibition according to the binding curve equation. Curves were plotted and best fits calculated using OriginPro […]
(§6) Homogenous time-resolved fluorescence (HTRF) assays for STAT3, STAT4, STAT5a and STAT5b were carried out using Cisbio Monoclonal Antibody Anti-6His-Tb Gold as the fluorescence donor (Perkin Elmer) and the corresponding CF-labelled binding peptide as the acceptor. […] The average reading from 3 wells was obtained. […]

[2] = biological target: T2, STAT5a (Homo sapiens, UniProt P42229); assay: HTRF assay, STAT5a; settings: STAT5a 110 nM, without reducing agent, 1 h
T2 sequence (P42229 1-794): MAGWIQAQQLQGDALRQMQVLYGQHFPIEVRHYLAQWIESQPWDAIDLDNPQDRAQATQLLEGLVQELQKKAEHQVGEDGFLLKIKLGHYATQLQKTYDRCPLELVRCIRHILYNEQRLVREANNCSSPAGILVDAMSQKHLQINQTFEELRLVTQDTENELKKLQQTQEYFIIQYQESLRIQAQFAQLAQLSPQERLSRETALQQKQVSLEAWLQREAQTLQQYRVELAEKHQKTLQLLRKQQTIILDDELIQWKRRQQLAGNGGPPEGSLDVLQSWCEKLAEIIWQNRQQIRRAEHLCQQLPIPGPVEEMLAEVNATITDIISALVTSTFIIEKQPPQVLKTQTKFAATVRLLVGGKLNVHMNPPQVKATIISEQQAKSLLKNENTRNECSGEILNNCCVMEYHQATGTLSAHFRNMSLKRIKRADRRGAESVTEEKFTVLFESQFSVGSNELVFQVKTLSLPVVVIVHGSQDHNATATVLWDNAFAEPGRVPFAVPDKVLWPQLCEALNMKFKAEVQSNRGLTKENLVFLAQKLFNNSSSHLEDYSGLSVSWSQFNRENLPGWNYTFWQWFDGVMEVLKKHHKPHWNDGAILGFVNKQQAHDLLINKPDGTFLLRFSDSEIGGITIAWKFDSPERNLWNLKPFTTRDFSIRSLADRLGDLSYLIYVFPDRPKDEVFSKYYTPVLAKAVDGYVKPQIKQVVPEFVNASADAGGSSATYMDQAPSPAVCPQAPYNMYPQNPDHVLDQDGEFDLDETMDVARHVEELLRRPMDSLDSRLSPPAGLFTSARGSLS
From the text: as §1, §2, §3, §4, §5, §6

[3] = biological target: T3, STAT4 (Homo sapiens, UniProt Q14765); assay: HTRF assay, STAT4; settings: STAT4 30 nM, without reducing agent, 1 h
T3 sequence (Q14765 1-748): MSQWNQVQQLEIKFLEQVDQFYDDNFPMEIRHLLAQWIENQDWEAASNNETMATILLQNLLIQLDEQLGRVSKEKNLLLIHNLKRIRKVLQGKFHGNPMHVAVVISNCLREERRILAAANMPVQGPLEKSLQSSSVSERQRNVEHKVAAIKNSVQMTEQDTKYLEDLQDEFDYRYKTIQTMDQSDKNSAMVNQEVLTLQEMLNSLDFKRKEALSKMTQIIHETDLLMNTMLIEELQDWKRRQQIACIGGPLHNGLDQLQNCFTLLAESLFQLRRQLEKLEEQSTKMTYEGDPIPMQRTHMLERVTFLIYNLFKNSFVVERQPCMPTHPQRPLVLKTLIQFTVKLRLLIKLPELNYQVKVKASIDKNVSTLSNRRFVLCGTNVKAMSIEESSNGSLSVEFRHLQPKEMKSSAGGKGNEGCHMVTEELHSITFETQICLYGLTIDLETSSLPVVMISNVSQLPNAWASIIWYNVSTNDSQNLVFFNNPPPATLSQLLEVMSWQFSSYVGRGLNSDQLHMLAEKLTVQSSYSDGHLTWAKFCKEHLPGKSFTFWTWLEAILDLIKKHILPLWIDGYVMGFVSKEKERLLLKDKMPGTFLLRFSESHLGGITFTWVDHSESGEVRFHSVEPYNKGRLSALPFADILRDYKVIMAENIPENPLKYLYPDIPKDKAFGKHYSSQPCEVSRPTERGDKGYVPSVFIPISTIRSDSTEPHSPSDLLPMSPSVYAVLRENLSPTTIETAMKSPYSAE
From the text: as §1, §2, §3, §4, §5, §6

## CC(C)C[C@H](NC(=O)[C@H](Cc1c[nH]c2ccccc12)NC(=O)[C@H](CCCCN)NC(=O)[C@H](CC(=O)O)NC(=O)[C@H](CC(C)C)NC(=O)[C@@H](NC(=O)[C@H](CC(C)C)NC(=O)[C@H](Cc1ccc(OP(=O)(O)O)cc1)NC(=O)[C@@H](NC(=O)[C@@H](N)CC(=O)O)[C@@H](C)O)C(C)C)C(=O)O (H-DT[pY]LVLDKWL-OH)
[1]
  IC50: 4180 ± 250 nM
[2]
  IC50: 2480 ± 270 nM

## CC[C@H](C)[C@H](NC(=O)[C@H](CC(N)=O)NC(=O)[C@H](CCC(N)=O)NC(=O)[C@@H]1CCCN1C(=O)[C@H](CC(C)C)NC(=O)[C@H](Cc1ccc(OP(=O)(O)O)cc1)NC(=O)CNC(C)=O)C(=O)N[C@@H](CC(=O)O)C(=O)O [Ac‐GpYLPQNID] (Ac-G[pY]LPQNID-OH)
[3]
  IC50: 2010 ± 80 nM
